Laboratory results as given in US4086417A, “Cytidine nucleotide derivatives” (Asahi Kasei Kogyo Kabushiki Kaisha, priority 1974, dated 1978).

Test system: leukemia L-1210
Assay: Antitumour activity in mice inoculated intraperitoneally with leukemia L-1210 (survival, T/C)
Format: in vivo, CDF-1 male mice
Details: for response vs control in vivo at 100 mg/kg / response vs control in vivo at 200 mg/kg / response vs control in vivo at 400 mg/kg: Mus musculus, L1210, ip, directly after injection of L-1210, after 2 days and after 6 days; for response vs control in vivo at 100 mg/kg: 100 mg/kg i.p.; for response vs control in vivo at 200 mg/kg: 200 mg/kg i.p.; for response vs control in vivo at 400 mg/kg: 400 mg/kg i.p.
Method: The antitumour activity for mice of the test material was evaluated by means of survival rate comparison, T/C (%), that is, 100 times the mean survival period of the groups injected with the test material divided by the mean survival period of the comparison groups which were not injected with the test material.
Further, for comparison, the following materials were also subjected to the same biological test: […]

SMILES | Antileukemial effect on mice (in words) (L-1210 in mice, conclusions in words) | response vs control in vivo at 100 mg/kg [%] | response vs control in vivo at 200 mg/kg [%] | response vs control in vivo at 400 mg/kg [%]
Nc1ccn([C@@H]2O[C@H](COP(=O)(O)O)[C@@H](O)[C@@H]2O)c(=O)n1 [Ara-C-5'-p.circle., 1-β-D-arabinofuranosylcytosine-5'-phosphate] | inferior to 1-β-D-arabinofuranosylcytosine in antileukemical effect on mice | 119 | 131 | 143
CC(=O)Nc1ccn([C@@H]2O[C@H](COP(=O)(O)O)[C@@H](O)[C@@H]2O)c(=O)n1 [N^4 -Acetyl-5'-PNa] | – | 101 | 99 | 99
CC(=O)Nc1ccn([C@@H]2O[C@H](CO)[C@@H](O)[C@@H]2O)c(=O)n1 [N^4 -Acetyl-Ara-C] | – | 125 | 125 | 125
CCCCC/C=C\C/C=C\C/C=C\C/C=C\CCCC(=O)Nc1ccn([C@@H]2O[C@H](COP(=O)(O)O)[C@@H](O)[C@@H]2O)c(=O)n1 [N^4 -Arachidonoyl-5'-PNa, N^4-arachidonoyl-1-β-D-arabinofuranosylcytosine-5'-phosphate monosodium] | – | 274 | 148 | 115
CCCCC/C=C\C/C=C\C/C=C\C/C=C\CCCC(=O)Nc1ccn([C@@H]2O[C@H](CO)[C@@H](O)[C@@H]2O)c(=O)n1 [N^4 -Arachidonoyl-Ara-C] | – | 269 | 137 | 114
CCCCCCCCCCCCCCCCCCCC(=O)Nc1ccn([C@@H]2O[C@H](COP(=O)(O)O)[C@@H](O)[C@@H]2O)c(=O)n1 [N^4 -Arachidoyl-5'-PNa, N^4-arachidoyl-1-β-D-arabinofuranosylcytosine-5'-phosphate monosodium] | – | 320 | 130 | 106
CCCCCCCCCCCCCCCCCCCC(=O)Nc1ccn([C@@H]2O[C@H](CO)[C@@H](O)[C@@H]2O)c(=O)n1 [N^4 -Arachidoyl-Ara-C] | – | 313 | 128 | 105
CCCCCCCCCCCCCCCCCCCCCC(=O)Nc1ccn([C@@H]2O[C@H](COP(=O)(O)O)[C@@H](O)[C@@H]2O)c(=O)n1 [N^4 -Behenoyl-5'-PNa] | – | 316 | 280 | 270
CCCCCCCCCCCCCCCCCCCCCC(=O)Nc1ccn([C@@H]2O[C@H](CO)[C@@H](O)[C@@H]2O)c(=O)n1 [N^4 -Behenoyl-Ara-C] | – | 313 | 260 | 256
CCCC(=O)Nc1ccn([C@@H]2O[C@H](COP(=O)(O)O)[C@@H](O)[C@@H]2O)c(=O)n1 [N^4 -Butyryl-5'-PNa] | – | 105 | 102 | 100
CCCC(=O)Nc1ccn([C@@H]2O[C@H](CO)[C@@H](O)[C@@H]2O)c(=O)n1 [N^4 -Butyryl-Ara-C] | – | 131 | 131 | 139
CCCCCC(=O)Nc1ccn([C@@H]2O[C@H](COP(=O)(O)O)[C@@H](O)[C@@H]2O)c(=O)n1 [N^4 -Caproyl-5'-PNa] | – | 103 | 105 | 101
CCCCCC(=O)Nc1ccn([C@@H]2O[C@H](CO)[C@@H](O)[C@@H]2O)c(=O)n1 [N^4 -Caproyl-Ara-C] | – | 125 | 133 | 150
CCCCCCCCCC(=O)Nc1ccn([C@@H]2O[C@H](COP(=O)(O)O)[C@@H](O)[C@@H]2O)c(=O)n1 [N^4 -Capryl-5'-PNa] | – | 103 | 102 | 98
CCCCCCCCCC(=O)Nc1ccn([C@@H]2O[C@H](CO)[C@@H](O)[C@@H]2O)c(=O)n1 [N^4 -Capryl-Ara-C] | – | 159 | 188 | > 284
CCCCCCCC(=O)Nc1ccn([C@@H]2O[C@H](COP(=O)(O)O)[C@@H](O)[C@@H]2O)c(=O)n1 [N^4 -Caprylyl-5'-PNa] | – | 103 | 101 | 99
CCCCCCCC(=O)Nc1ccn([C@@H]2O[C@H](CO)[C@@H](O)[C@@H]2O)c(=O)n1 [N^4 -Caprylyl-Ara-C] | – | 123 | 127 | 163
CCCCCCCCCCCC(=O)Nc1ccn([C@@H]2O[C@H](COP(=O)(O)O)[C@@H](O)[C@@H]2O)c(=O)n1 [N^4 -Lauroyl-5'-PNa] | – | 110 | 115 | 115
CCCCC/C=C\C/C=C\CCCCCCCC(=O)Nc1ccn([C@@H]2O[C@H](COP(=O)(O)O)[C@@H](O)[C@@H]2O)c(=O)n1 [N^4 -Linoleoyl-5'-PNa] | – | 275 | 145 | 120
CCCCC/C=C\C/C=C\CCCCCCCC(=O)Nc1ccn([C@@H]2O[C@H](CO)[C@@H](O)[C@@H]2O)c(=O)n1 [N^4 -Linoleoyl-Ara-C] | – | 268 | 140 | 112
CCCCCCCCCCCCCC(=O)Nc1ccn([C@@H]2O[C@H](COP(=O)(O)O)[C@@H](O)[C@@H]2O)c(=O)n1 [N^4 -Myristoyl-5'-PNa, N^4 -Myristoyl-1-β-D-arabinofuranosylcytosine-5'-phosphate monosodium] | – | > 219 | > 261 | 93
CCCCCCCCCCCCCC(=O)Nc1ccn([C@@H]2O[C@H](CO)[C@@H](O)[C@@H]2O)c(=O)n1 [N^4 -Myristoyl-Ara-C, N^4-myristoyl-1-β-D-arabinofuranosylcytosine] | – | 206 | 127 | 90
CCCCCCCCCCCCCCCCCCC(=O)Nc1ccn([C@@H]2O[C@H](COP(=O)(O)O)[C@@H](O)[C@@H]2O)c(=O)n1 [N^4 -Nonadecanoyl-5'-PNa, N^4-nonadecanoyl-1-β-D-arabinofuranosylcytosine-5'-phosphate monosodium] | – | 385 | 232 | 102
CCCCCCCCCCCCCCCCCCC(=O)Nc1ccn([C@@H]2O[C@H](CO)[C@@H](O)[C@@H]2O)c(=O)n1 [N^4 -Nonadecanoyl-Ara-C] | – | 382 | 216 | 134
CCCCCCCCCCCCCCC(=O)Nc1ccn([C@@H]2O[C@H](COP(=O)(O)O)[C@@H](O)[C@@H]2O)c(=O)n1 [N^4 -Pentadecanoyl-5'-PNa] | – | > 302 | > 287 | 86
